Organism: Rattus norvegicus
Experiment: Effects of isomer (100 uM) upon 10 uM L-HCA-induced depolarization; Control
Type: functional

First: N[C@@H](C(=O)O)[C@H](CC(=O)O)c1ccc(Cl)cc1
Second: NC(C(=O)O)[C@H](CC(=O)O)c1ccc(Cl)cc1 (stereo partly drawn)
The Others of the first is lower: 94.2% for the first, 130.4% for the second.

`N[C@H](C(=O)O)[C@@H](CC(=O)O)c1ccc(Cl)cc1` was tested, and the Others was 114.5%.

Reference: ChEMBL document CHEMBL1129410, “Diastereoselective synthesis of all four isomers of 3-(4-chlorophenyl) glutamic acid: identification of the isomers responsible for the potentiation of L-homocysteic acid-evoked depolarizations in neonatal rat motoneurons” (1996)
